Results on four compounds are retold here after US6436988B1, “Use of 3-(2,4,6-trimethylphenyl)-4-neopentylcarbonyloxy-5,5- tetramethylene-Δ3-dihydrofuran-2-one for controlling the white fly” (Bayer Aktiengesellschaft, priority 1999, dated 2002).

Structures are written as SMILES.

The subject of this experiment is white fly Bemisia tabaci. Kind of experiment: Bemisia test. It is filed as in vivo. Conditions: concentration of active compound 0.0008 %, infested cotton plants (Gossypium hirsutum) with eggs, larvae and pupae dipped into preparation. The method, then: Solvent: 7.5 parts by weight of dimethylformamide
Emulsifier: 2.5 parts by weight of alkylaryl polyglycol ether
To produce a suitable preparation of active compound, 1 part by weight of active compound is mixed with the stated amounts of solvent and emulsifier, and the concentrate is diluted with water to the desired concentrations.
Cotton plants (Gossypium hirsutum) infested by eggs, larvae and pupae of the white fly Bemisia tabaci are dipped into a preparation of active compound of the desired concentration.
After the desired period of time, the kill in % is determined. 100% means that all animals have been killed; 0% means that none of the animals have been killed.
In the case of `Cc1cc(C)c(C2=C(OC(=O)CC(C)(C)C)C3(CCCC3)OC2=O)c(C)c1` [formula (I), 3-(2,4,6-Trimethylphenyl)-4-neopentylcarbonyloxy-5,5-tetramethylene-Δ^3-dihydrofuran-2-one], the “Kill in % after 14 days” value was 95%. As to `Cc1cc(C)c(C2=C(OC(=O)CC(C)(C)C)C3(CCCCC3)OC2=O)c(C)c1`, the “Kill in % after 14 days” value came out at 50%.

As to `Cc1cc(C)c(C2=C(OC(=O)C(C)(C)C)C3(CCCC3)OC2=O)c(C)c1`, the “Kill in % after 14 days” value is reported as 0%.

For `Cc1cc(C)c(C2=C(OC(=O)CC(C)C)C3(CCCC3)OC2=O)c(C)c1`, the “Kill in % after 14 days” value is given as 0%.
